Results: patent US7947719B2, “Biologically active compounds obtainable from Sorangium cellulosum” (Hemholtz-Zentrum fur Infektionsforschung GmbH, priority 2005, dated 2011)
Converted amounts (≈) assume the structure as drawn.

Legend:
Type in all cases: cell-based
[1] = test system: mouse fibroblast cell line L929 (ATCC CCL 1); assay: Toxicity against mouse fibroblast cell line L929; settings: L929 (ATCC CCL 1) mouse fibroblasts; read-out: inhibitory concentration IC50 (toxicity)
Method: The toxicity tested against the mouse fibroblast cell line L929 (ATCC CCL 1) according to Sasse et al. (J. Antibiotics 56:827-831 (2003)), an inhibitory concentration IC50 of 30 pg/mL was determined.

[2] = test system: Staphylococcus aureus; assay: Minimal inhibitory concentration against micro-organisms
Text: (§1) As an example for compounds according to the invention, Disorazole Z has been analyzed for biological activity following the methods as disclosed in Irschik et al. (The Sorangicins, novel and powerful inhibitors of eubacterial RNA polymerase isolated from myxobacteria, J. Antibiotics 40: 7-13 (1987)). The following minimal inhibitory concentrations against organisms were found: […]

[3] = test system: Escherichia coli (DMSZ 5347); assay: as above
Text: as §1

[4] = test system: Saccharomyces cerevisiae; assay: as above
Text: as §1

[5] = test system: Botrytis cinerea; assay: as above
Text: as §1

[6] = test system: Rhodotorula glutinis; assay: as above
Text: as §1

[7] = test system: Mucor hiemalis; assay: as above
Text: as §1

[8] = test system: Pythium debaryanum; assay: as above; settings: Globisporangium debaryanum
Text: as §1

## C/C=C/C(O)C(C)(C(=O)OC)C1C\C=C/C=C/C=C/c2nc(co2)C(=O)OC(C(C)(C(=O)OC)C(O)/C=C/C)C\C=C/C=C/C=C/c2nc(co2)C(=O)O1 (centres unmarked) [Disorazole Z]
[1]
  IC50: 0.03 ng/mL (≈ 4.02e-05 µM)
[2]
  MIC: > 25 µg/mL
[3]
  MIC: > 25 µg/mL
[4]
  MIC: > 6 µg/mL
[5]
  MIC: 6 µg/mL (≈ 8.03 µM)
[6]
  MIC: 3 µg/mL (≈ 4.02 µM)
[7]
  MIC: > 6 µg/mL
[8]
  MIC: 3 µg/mL (≈ 4.02 µM)
